This is an account of results in US20070021419A1, “2-Aminophenyl-4-phenylpyrimidines as kinase inhibitors” (Cyclacel Limited, priority 2003, published 2007).

pIC50: −log10 of the molar value.

What all share (assay type): biochemical
In one experiment the target is CDK2/cyclin E (Homo sapiens, UniProt P24941). Description: Kinase assay, radioactive phosphate incorporation, CDK2/cyclin E. The following applies: 100 μM ATP, 30° C.; read-out: Kinase inhibition IC50 CDK2/cyclin E. The procedure:
(§1) The compounds from the examples above were investigated for their ability to inhibit the enzymatic activity of various protein kinases. This was achieved by measurement of incorporation of radioactive phosphate from ATP into appropriate polypeptide substrates. Recombinant protein kinases and kinase complexes were produced or obtained commercially. Assays were performed using 96-well plates and appropriate assay buffers (typically 25 mM β-glycerophosphate, 20 mM MOPS, 5 MM EGTA, 1 mM DTT, 1 mM Na3VO3, pH 7.4), into which were added 2-4 μg of active enzyme with appropriate substrates. The reactions were initiated by addition of Mg/ATP mix (15 mM MgCl2+100 μM ATP with 30-50 kBq per well of [γ-^32P]-ATP) and mixtures incubated as required at 30° C. Reactions were stopped on ice, followed by filtration through p81 filterplates or GF/C filterplates (Whatman Polyfiltronics, Kent, UK). After washing 3 times with 75 mM aq orthophosphoric acid, plates were dried, scintillant added and incorporated radioactivity measured in a scintillation counter (TopCount, Packard Instruments, Pangbourne, Berks, UK). Compounds for kinase assay were made up as 10 mM stocks in DMSO and diluted into 10% DMSO in assay buffer.

In a further experiment the target is CDK7/cyclin H (Homo sapiens, UniProt P50613). Put plainly: Kinase assay, radioactive phosphate incorporation, CDK7/cyclin H. The following applies: 100 μM ATP, 30° C.; read-out: Kinase inhibition IC50 CDK7/cyclin H. The procedure: as §1
In the next experiment the target is GSK3β (Homo sapiens, UniProt P49841). Description: Kinase assay, radioactive phosphate incorporation, GSK3β. The following applies: 100 μM ATP, 30° C.; read-out: Kinase inhibition IC50 GSK3β. The method, then:
as §1

The next experiment deals with CDK9/cyclin T1 (Homo sapiens, UniProt P50750). Description: Kinase assay, radioactive phosphate incorporation, CDK9/cyclin T1. To be noted: 100 μM ATP, 30° C.; read-out: Kinase inhibition IC50 CDK9/cyclin T1. The method, then: as §1
Sequence of CDK9/cyclin T1 (P50750 whole entry, species assumed): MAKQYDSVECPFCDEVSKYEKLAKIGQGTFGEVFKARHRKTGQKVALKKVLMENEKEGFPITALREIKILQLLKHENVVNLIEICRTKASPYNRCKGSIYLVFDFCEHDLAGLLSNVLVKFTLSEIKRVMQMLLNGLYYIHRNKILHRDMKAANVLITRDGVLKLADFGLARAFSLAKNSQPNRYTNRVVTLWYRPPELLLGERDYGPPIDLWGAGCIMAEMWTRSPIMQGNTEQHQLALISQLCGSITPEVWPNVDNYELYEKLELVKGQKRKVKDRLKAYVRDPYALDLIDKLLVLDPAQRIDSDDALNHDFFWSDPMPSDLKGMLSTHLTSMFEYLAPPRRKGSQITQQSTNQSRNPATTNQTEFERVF
Sequence of CDK9/cyclin T1 (O60563 whole entry partner, species assumed): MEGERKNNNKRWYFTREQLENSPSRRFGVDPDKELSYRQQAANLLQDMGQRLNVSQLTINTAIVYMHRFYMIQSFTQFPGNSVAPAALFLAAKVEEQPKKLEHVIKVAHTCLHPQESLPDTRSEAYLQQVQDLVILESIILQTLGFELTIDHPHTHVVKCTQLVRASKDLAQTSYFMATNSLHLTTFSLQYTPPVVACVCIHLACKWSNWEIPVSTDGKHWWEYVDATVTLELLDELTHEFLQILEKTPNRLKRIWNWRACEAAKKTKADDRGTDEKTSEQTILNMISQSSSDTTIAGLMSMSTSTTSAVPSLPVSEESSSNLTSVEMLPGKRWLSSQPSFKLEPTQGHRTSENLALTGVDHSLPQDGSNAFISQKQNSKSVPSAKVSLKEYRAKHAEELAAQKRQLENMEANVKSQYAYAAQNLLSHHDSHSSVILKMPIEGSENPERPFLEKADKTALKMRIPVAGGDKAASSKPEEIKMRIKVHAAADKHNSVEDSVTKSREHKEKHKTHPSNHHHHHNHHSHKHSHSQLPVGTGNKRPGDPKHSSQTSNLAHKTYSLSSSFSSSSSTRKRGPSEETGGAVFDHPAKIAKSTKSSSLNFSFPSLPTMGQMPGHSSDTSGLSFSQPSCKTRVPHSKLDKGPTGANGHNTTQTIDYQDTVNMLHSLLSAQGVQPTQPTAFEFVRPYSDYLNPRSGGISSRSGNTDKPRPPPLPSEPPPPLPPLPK

Sequence of CDK7/cyclin H (P50613 whole entry, species assumed): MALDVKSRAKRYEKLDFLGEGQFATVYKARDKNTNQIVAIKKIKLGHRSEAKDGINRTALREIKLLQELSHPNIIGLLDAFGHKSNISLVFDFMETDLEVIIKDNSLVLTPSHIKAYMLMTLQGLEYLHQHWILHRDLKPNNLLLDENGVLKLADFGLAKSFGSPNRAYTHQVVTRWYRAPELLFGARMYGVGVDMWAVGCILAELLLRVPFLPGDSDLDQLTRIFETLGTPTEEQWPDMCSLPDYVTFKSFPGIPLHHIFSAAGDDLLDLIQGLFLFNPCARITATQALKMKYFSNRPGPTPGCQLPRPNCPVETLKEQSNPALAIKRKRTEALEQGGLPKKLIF
Sequence of CDK7/cyclin H (P51946 whole entry partner, species assumed): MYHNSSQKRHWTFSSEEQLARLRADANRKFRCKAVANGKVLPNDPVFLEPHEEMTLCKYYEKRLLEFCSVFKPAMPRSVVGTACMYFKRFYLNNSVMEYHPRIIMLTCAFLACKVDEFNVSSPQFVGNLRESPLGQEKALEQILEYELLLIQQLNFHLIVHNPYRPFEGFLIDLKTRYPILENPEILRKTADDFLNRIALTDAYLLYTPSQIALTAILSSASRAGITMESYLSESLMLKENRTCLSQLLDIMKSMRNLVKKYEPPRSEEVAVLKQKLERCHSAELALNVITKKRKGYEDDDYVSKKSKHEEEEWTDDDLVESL
Sequence of GSK3β (P49841 whole entry, species assumed): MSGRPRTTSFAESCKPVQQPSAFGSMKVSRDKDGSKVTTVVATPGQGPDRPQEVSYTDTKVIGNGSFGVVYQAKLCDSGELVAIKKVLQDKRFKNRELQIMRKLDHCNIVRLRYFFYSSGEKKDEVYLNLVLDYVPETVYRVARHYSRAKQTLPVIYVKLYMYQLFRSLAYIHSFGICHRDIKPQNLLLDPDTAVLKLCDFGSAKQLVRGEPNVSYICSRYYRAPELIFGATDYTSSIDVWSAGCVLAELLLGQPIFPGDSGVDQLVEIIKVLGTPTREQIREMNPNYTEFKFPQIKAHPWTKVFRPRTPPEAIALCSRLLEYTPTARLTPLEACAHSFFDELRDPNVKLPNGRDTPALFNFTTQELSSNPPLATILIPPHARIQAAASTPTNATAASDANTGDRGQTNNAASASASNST

On to `CC(=O)N(C)c1cccc(-c2ccnc(Nc3ccc(O)cc3)n2)c1` [Compound 12, N-{3-[2-(4-Hydroxy-phenylamino)-pyrimidin-4-yl]-phenyl}-N-methyl-acetamide], for which the pIC50 on CDK2/cyclin E was 6.62.

On to `Nc1cccc(-c2ccnc(Nc3cccc([N+](=O)[O-])c3)n2)c1` [Compound 19, [4-(3-Amino-phenyl)-pyrimidin-2-yl]-(3-nitro-phenyl)-amine], for which the values for the pIC50 at CDK7/cyclin H and at GSK3β were 5.60 and 7.26, respectively.

With `O=[N+]([O-])c1cccc(Nc2nccc(-c3ccc(Cl)c(Cl)c3)n2)c1` [Compound 31, [4-(3,4-Dichloro-phenyl)-pyrimidin-2-yl]-(3-nitro-phenyl)-amine], the pIC50 at GSK3β is 5.35.

Regarding `COc1ccc(Nc2nccc(-c3ccc(Cl)c(Cl)c3)n2)cn1` [Compound 49, [4-(3,4-Dichloro-phenyl)-pyrimidin-2-yl]-(6-methoxy-pyridin-3-yl)-amine], the pIC50 at GSK3β is 5.28.

As to `Cc1ccc(C)c(-c2ccnc(Nc3cccc([N+](=O)[O-])c3)n2)c1` [Compound 61, [4-(2,5-Dimethyl-phenyl)-pyrimidin-2-yl]-(3-nitro-phenyl)-amine], the pIC50 is 5.89 at CDK2/cyclin E and 6.24 at GSK3β.

With `Cc1ccc(C)c(-c2ccnc(Nc3cccc(O)c3)n2)c1` [Compound 62, 3-[4-(2,5-Dimethyl-phenyl)-pyrimidin-2-ylamino]-phenol], the pIC50 at CDK2/cyclin E is 5.74.

With `O=[N+]([O-])c1cccc(-c2ccnc(Nc3cccc(O)c3)n2)c1` [Compound 64, 3-[4-(3-Nitro-phenyl)-pyrimidin-2-ylamino]-phenol], the pIC50 was 6.15 at CDK2/cyclin E and 7.22 on GSK3β.

On to `CC(=O)Nc1cccc(-c2ccnc(Nc3ccccc3)n2)c1` [Compound 66, N-[3-(2-Phenylamino-pyrimidin-4-yl)-phenyl]-acetamide], for which the pIC50 on CDK2/cyclin E was 5.55; at GSK3β it was 6.20.

On to `COc1cc(Nc2nccc(-c3cccc(NC(C)=O)c3)n2)cc(OC)c1` [Compound 68, N-{3-[2-(3,5-Dimethoxy-phenylamino)-pyrimidin-4-yl]-phenyl}-acetamide], for which the pIC50 on CDK2/cyclin E is 5.57.

As to `COc1ccc(Nc2nccc(-c3cccc(O)c3)n2)cn1` [Compound 74, 3-[2-(6-Methoxy-pyridin-3-ylamino)-pyrimidin-4-yl]-phenol], the pIC50 at CDK7/cyclin H is 5.42; on GSK3β, 7.30.

As to `COc1cccc(-c2ccnc(Nc3cccc([N+](=O)[O-])c3)n2)c1` [Compound 87, [4-(3-Methoxy-phenyl)-pyrimidin-2-yl]-(3-nitro-phenyl)-amine], the pIC50 is 8.52 on CDK9/cyclin T1 and 7.15 on GSK3β.

`O=[N+]([O-])c1cccc(Nc2nccc(-c3cccc(C(F)(F)F)c3)n2)c1` [Compound 97, (3-Nitro-phenyl)-[4-(3-trifluoromethyl-phenyl)-pyrimidin-2-yl]-amine]: the figures for the pIC50 at CDK9/cyclin T1 and at GSK3β were 6.80 and 6.57, respectively.

Turning to `OCC1CCCCN1Cc1cccc(-c2ccnc(Nc3ccc(O)cc3)n2)c1` (centres unmarked) [Compound 106, 4-{4-[3-(2-Hydroxymethyl-piperidin-1-ylmethyl)-phenyl]-pyrimidin-2-ylamino}-phenol], the pIC50 was 5.77 at CDK7/cyclin H and 6.72 at CDK9/cyclin T1.

Consider `OCc1cc(CO)cc(Nc2nccc(-c3cccc(CN4CCCCC4CO)c3)n2)c1` (centres unmarked) [Compound 107, (1-{3-[2-(3,5-Bis-hydroxymethyl-phenylamino)-pyrimidin-4-yl]-benzyl}-piperidin-2-yl)-methanol], for which the pIC50 at CDK7/cyclin H was 5.85; on CDK9/cyclin T1, 6.19.

Take `COc1ccc(-c2ccnc(Nc3cccc(F)c3)n2)cc1` [Compound 119, (3-Fluoro-phenyl)-[4-(4-methoxy-phenyl)-pyrimidin-2-yl]-amine]: the pIC50 on CDK9/cyclin T1 is 7.40; on GSK3β it was 6.85.

In the case of `O=[N+]([O-])c1cccc(Nc2nccc(-c3cc(F)ccc3F)n2)c1` [Compound 123, [4-(2,5-Difluoro-phenyl)-pyrimidin-2-yl]-(3-nitro-phenyl)-amine], the pIC50 on CDK9/cyclin T1 is 6.77.
